Laboratory results taken from PMC3282105, “Antitumoral activity of allosteric inhibitors of protein kinase CK2” (2011).

Target: T1, CK2α (Homo sapiens, UniProt P68400)
T1 construct: gene CSNK2A1; human recombinant CK2α; rhCK2αΔC(1-335)
T1 sequence (P68400 1-335): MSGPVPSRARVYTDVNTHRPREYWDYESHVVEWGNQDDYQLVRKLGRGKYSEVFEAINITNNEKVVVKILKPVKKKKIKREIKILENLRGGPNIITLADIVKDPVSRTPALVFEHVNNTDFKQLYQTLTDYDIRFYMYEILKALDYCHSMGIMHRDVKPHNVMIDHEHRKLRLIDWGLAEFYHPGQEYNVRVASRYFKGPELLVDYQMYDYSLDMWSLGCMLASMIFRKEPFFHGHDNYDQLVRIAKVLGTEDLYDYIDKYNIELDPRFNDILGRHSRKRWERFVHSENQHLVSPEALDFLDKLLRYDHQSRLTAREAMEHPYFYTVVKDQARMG
Assay: radiometric kinase assay dose-response, Lineweaver-Burk kinetics, mutant panel
Assay type: biochemical

`O=[N+]([O-])c1ccc2c(N=Nc3ccc4ccccc4c3O)c(O)cc(S(=O)(=O)O)c2c1` [compound 4, Eriochrome Black T] showed an IC50 of roughly 400 nM.
